ChEMBL document CHEMBL1147106, “Antistaphylococcal activity of DX-619 alone and in combination with vancomycin, teicoplanin, and linezolid assessed by time-kill synergy testing” (2007)
Values after ≈ are worked out from the molar mass of the structure shown.

Columns and labels:
Assay type in all cases: functional
Staphylococcus aureus [1] = experiment: Antistaphylococcal activity against quinolone and methicillin-resistant Staphylococcus aureus
Staphylococcus aureus [2] = experiment: Antistaphylococcal activity against vancomycin-resistant Staphylococcus aureus
Staphylococcus aureus [3] = experiment: Antistaphylococcal activity against vancomycin-resistant Staphylococcus aureus 510
Staphylococcus aureus [4] = experiment: Antistaphylococcal activity against quinolone-resistant Staphylococcus aureus 508
Staphylococcus aureus [5] = experiment: Antistaphylococcal activity against vancomycin-intermediate Staphylococcus aureus
Staphylococcus aureus [6] = experiment: Antistaphylococcal activity against vancomycin-intermediate Staphylococcus aureus 507
Staphylococcus aureus [7] = experiment: Antistaphylococcal activity against vancomycin-intermediate Staphylococcus aureus 505
Staphylococcus aureus [8] = experiment: Antistaphylococcal activity against methicillin-sensitive Staphylococcus aureus
Staphylococcus aureus [9] = experiment: Antistaphylococcal activity against vancomycin-intermediate Staphylococcus aureus 508
Staphylococcus aureus [10] = experiment: Antistaphylococcal activity against vancomycin-intermediate Staphylococcus aureus 506
Staphylococcus aureus [11] = experiment: Antistaphylococcal activity against vancomycin-resistant Staphylococcus aureus 512
Staphylococcus aureus [12] = experiment: Antistaphylococcal activity against quinolone-resistant Staphylococcus aureus 242
Staphylococcus aureus [13] = experiment: Antistaphylococcal activity against vancomycin-resistant Staphylococcus aureus 509
Staphylococcus aureus [14] = experiment: Antistaphylococcal activity against vancomycin-intermediate Staphylococcus aureus 504
Staphylococcus aureus [15] = experiment: Antistaphylococcal activity against quinolone-resistant Staphylococcus aureus 261
Staphylococcus aureus [16] = experiment: Antistaphylococcal activity against quinolone-resistant Staphylococcus aureus 241
Staphylococcus aureus [17] = experiment: Antistaphylococcal activity against quinolone-susceptible methicillin-resistant Staphylococcus aureus
Staphylococcus aureus [18] = experiment: Antistaphylococcal activity against vancomycin-intermediate Staphylococcus aureus 555

SMILES	MIC (Staphylococcus aureus [1])	MIC (Staphylococcus aureus [2])	MIC (Staphylococcus aureus [3])	MIC (Staphylococcus aureus [4])	MIC (Staphylococcus aureus [5])	MIC (Staphylococcus aureus [6])	MIC (Staphylococcus aureus [7])	MIC (Staphylococcus aureus [8])	MIC (Staphylococcus aureus [9])	MIC (Staphylococcus aureus [10])	MIC (Staphylococcus aureus [11])	MIC (Staphylococcus aureus [12])	MIC (Staphylococcus aureus [13])	MIC (Staphylococcus aureus [14])	MIC (Staphylococcus aureus [15])	MIC (Staphylococcus aureus [16])	MIC (Staphylococcus aureus [17])	MIC (Staphylococcus aureus [18])
C[C@H]1COc2c(N3CCN(C)CC3)c(F)cc3c(=O)c(C(=O)O)cn1c23.C[C@H]1COc2c(N3CCN(C)CC3)c(F)cc3c(=O)c(C(=O)O)cn1c23.O [LEVOFLOXACIN]	≥ 4 µg/mL																	
CN[C@H](CC(C)C)C(=O)N[C@H]1C(=O)N[C@@H](CC(N)=O)C(=O)N[C@H]2C(=O)N[C@H]3C(=O)N[C@H](C(=O)N[C@H](C(=O)O)c4cc(O)cc(O)c4-c4cc3ccc4O)[C@H](O)c3ccc(c(Cl)c3)Oc3cc2cc(c3O[C@@H]2O[C@H](CO)[C@@H](O)[C@H](O)[C@H]2O[C@H]2C[C@](C)(N)[C@H](O)[C@H](C)O2)Oc2ccc(cc2Cl)[C@H]1O [VANCOMYCIN]		32 µg/mL (≈ 22.1 µM)	0.05 µg/mL (≈ 0.0345 µM)															
COc1c(N2CC[C@@H](C3(N)CC3)C2)ccc2c(=O)c(C(=O)O)cn([C@@H]3C[C@@H]3F)c12	0.06 µg/mL (≈ 0.149 µM)	0.125 µg/mL (≈ 0.311 µM)	0.06 µg/mL (≈ 0.149 µM)	0.004 µg/mL (≈ 0.00996 µM)	0.016 µg/mL (≈ 0.0399 µM)	0.06 µg/mL (≈ 0.149 µM)	0.004 µg/mL (≈ 0.00996 µM)	0.004 µg/mL (≈ 0.00996 µM)	0.004 µg/mL (≈ 0.00996 µM)	0.06 µg/mL (≈ 0.149 µM)	0.06 µg/mL (≈ 0.149 µM)	0.004 µg/mL (≈ 0.00996 µM)	0.06 µg/mL (≈ 0.149 µM)	0.06 µg/mL (≈ 0.149 µM)	0.004 µg/mL (≈ 0.00996 µM)	0.004 µg/mL (≈ 0.00996 µM)	0.008 µg/mL (≈ 0.0199 µM)	0.06 µg/mL (≈ 0.149 µM)
